Where a name gives a salt, the structure may show the parent alone. Read-outs that look alike come from different tables or passages of the source.
Experiments:
IRAK4 protein = target: T1, IRAK4 protein (Homo sapiens, UniProt Q9NWZ3); test: IRAK4 degradation activity in hPBMC cells (24 hours); format: cell-based; conditions: for Remaining IRAK4 protein IRAK4%: 100 nM, relative to vehicle control
T1 construct: endogenous in cells; host or cells: human peripheral blood mononuclear cells (hPBMC) from healthy volunteers
T1 sequence (Q9NWZ3 1-460): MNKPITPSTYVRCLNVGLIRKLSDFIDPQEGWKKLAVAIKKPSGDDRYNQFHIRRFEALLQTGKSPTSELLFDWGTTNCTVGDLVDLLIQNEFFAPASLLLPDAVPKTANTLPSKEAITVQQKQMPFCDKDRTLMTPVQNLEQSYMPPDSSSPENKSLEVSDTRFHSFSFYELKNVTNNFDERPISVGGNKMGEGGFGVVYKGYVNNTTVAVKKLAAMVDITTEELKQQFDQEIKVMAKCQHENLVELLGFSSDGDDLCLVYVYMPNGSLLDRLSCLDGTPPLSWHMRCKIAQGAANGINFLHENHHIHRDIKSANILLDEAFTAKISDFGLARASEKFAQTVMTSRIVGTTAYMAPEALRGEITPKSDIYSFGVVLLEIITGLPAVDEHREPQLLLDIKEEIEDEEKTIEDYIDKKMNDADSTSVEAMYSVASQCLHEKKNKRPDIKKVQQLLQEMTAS
Description: hPBMC cells are human peripheral blood mononuclear cells. Peripheral venous blood was taken from healthy volunteers, and hPBMCs were isolated using Ficoll density gradient centrifugation (Ficoll-Paque™ PLUS 1.077, GE, Cat. 17-1140-02). Culture conditions: RPMI-1640+10% FBS+1% penicillin-streptomycin solution. The cells were cultured in an incubator at 37° C. and 5% CO2. The cells were plated in a 24-well plate at 1×10^6 cells/well. After plating, compounds at different concentrations were added, and the cells were cultured in an incubator at 37° C. and 5% CO2 for 24 hours. After the culture was completed, the cells were collected, and RIPA lysis buffer (beyotime, Cat. P0013B) was added. The cells were lysed on ice for 20 minutes, and then centrifuged at 12000 rpm at 4° C. for 10 minutes. The protein sample of the supernatant was collected, the protein was quantified using a BCA kit (Beyotime, Cat. P0009), and then the protein was diluted to 1 mg/mL. The expression of IRAK4 (CST, Cat. 4363S) and the internal reference cofilin (CST, Cat. 5175S) were detected using a fully automated western blot quantitative analyzer (Proteinsimple). The expression level of IRAK4 relative to the internal reference was calculated using compass software. The remaining IRAK4 protein IRAK4% relative to the vehicle control group at different doses was calculated using formula (1), and the IRAK4 protein degradation relative to the vehicle control group at different doses was calculated using formula (2), where IRAK4administration was the expression level of IRAK4 in the administration groups at different doses, and IRAK4vehicle was the expression level of IRAK4 in the vehicle control group. An IRAK4 degradation-drug concentration curve was fit using Graphpad Prism 8 software, and the DC50 was calculated.

[1] = target: T2, hERG potassium ion channel (Homo sapiens, UniProt Q12809); test: Effect on hERG potassium ion channel (manual patch-clamp, CHO cells); format: cell-based; conditions: CHO cells stably expressing hERG, whole cell patch-clamp
T2 construct: expressed in transfected cells; host or cells: CHO (Chinese hamster ovary) cells stably expressing hERG
T2 sequence (Q12809 whole entry): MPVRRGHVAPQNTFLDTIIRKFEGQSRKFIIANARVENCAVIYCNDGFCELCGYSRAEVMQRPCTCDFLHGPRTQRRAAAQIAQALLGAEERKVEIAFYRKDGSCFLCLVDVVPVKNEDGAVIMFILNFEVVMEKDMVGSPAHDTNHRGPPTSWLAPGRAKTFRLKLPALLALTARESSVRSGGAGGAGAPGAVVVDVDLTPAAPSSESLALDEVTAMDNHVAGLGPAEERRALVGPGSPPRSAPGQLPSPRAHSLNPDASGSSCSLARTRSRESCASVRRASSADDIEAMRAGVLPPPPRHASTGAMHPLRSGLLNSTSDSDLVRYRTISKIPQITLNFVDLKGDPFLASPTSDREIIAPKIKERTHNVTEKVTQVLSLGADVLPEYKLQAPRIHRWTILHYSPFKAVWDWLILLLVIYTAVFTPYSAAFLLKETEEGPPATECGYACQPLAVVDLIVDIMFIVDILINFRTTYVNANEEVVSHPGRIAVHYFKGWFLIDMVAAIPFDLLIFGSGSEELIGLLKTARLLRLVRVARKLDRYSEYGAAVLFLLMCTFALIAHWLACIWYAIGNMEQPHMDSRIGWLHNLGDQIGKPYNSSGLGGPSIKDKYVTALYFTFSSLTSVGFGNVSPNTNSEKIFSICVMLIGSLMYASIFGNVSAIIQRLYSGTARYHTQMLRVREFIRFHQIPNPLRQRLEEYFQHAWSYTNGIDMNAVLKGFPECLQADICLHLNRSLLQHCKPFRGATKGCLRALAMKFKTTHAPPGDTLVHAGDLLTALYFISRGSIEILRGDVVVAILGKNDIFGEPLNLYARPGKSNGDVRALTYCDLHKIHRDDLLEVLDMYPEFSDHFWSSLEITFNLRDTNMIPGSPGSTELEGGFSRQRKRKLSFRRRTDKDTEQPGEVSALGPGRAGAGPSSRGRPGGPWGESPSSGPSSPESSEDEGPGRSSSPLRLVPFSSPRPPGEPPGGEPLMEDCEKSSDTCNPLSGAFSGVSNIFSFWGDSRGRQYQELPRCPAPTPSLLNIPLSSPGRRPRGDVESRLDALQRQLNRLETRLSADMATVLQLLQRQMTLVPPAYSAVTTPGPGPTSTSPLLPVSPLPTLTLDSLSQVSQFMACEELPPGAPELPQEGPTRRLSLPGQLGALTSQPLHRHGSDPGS
Description: Experimental platform: electrophysiological manual patch-clamp system
Cell line: Chinese hamster ovary (CHO) cell line stably expressing hERG potassium ion channel
Experimental method: In CHO (Chinese Hamster Ovary) cells stably expressing hERG potassium channel, whole cell patch-clamp technique was used to record hERG potassium channel current at room temperature. The glass microelectrode was made of a glass electrode blank (BF150-86-10, Sutter) by a puller. The tip resistance after filling the liquid in the electrode was about 2-5 MQ. The glass microelectrode can be connected to the patch-clamp amplifier by inserting the glass microelectrode into an amplifier probe. The clamping voltage and data recording were controlled and recorded by the pClamp 10 software through a computer. The sampling frequency was 10 kHz, and the filtering frequency was 2 kHz. After the whole cell records were obtained, the cells were clamped at −80 mV, and the step voltage that induced the hERG potassium current (lhERG) was depolarized from −80 mV to +20 mV for 2 s, then repolarized to −50 mV, and returned to −80 mV after 1 s. This voltage stimulation was given every 10 s, and the administration process was started after the hERG potassium current was confirmed to be stable (at least 1 minute). The compound was administered for at least 1 minute at each test concentration, and at least 2 cells (n≥2) were tested at each concentration.
Data processing: Data analysis processing was carried out by using pClamp 10, GraphPad Prism 5 and Excel software. The inhibition degree of hERG potassium current (peak value of hERG tail current induced at −50 mV) at different compound concentrations was calculated by the following formula:
[formula] • where Inhibition % represents the percentage of inhibition of hERG potassium current by the compound, and l and lo represent the amplitude of hERG potassium current after and before the administration, respectively.
Compound IC50 was calculated using GraphPad Prism 5 software by fitting according to the following equation:
[formula] • where X represents the Log value of the tested concentration of the test sample, Y represents the inhibition percentage at the corresponding concentration, and Bottom and Top represent the minimum and maximum inhibition percentage, respectively.

[2] = Pharmacokinetic test in mice; format: in vivo, ICR mice; conditions: male, ICR, mouse, plasma, po, 10 mg/kg, i.g. 10 mg/kg, read-out: AUC0-t
Description: Experimental animals: Male ICR mice, about 25 g, 6 mice/compound, purchased from Chengdu Ddossy Experimental Animals Co., Ltd.
Test design: On the day of the experiment, 6 ICR mice were randomly grouped according to their body weights. The animals were fasted with water available for 12 to 14 h one day before the administration, and were fed 4 h after the administration.
• Vehicle for intravenous administration: 5% DMA+5% Solutol+90% Saline; • Vehicle for intragastric administration: 5% DMSO+30% PEG400+65% (20% SBE-CD); (DMSO: dimethyl sulfoxide; DMA: dimethylacetamide; Solutol: polyethylene glycol-15-hydroxystearate; PEG400: polyethylene glycol 400; SBE-β-CD: sulfobutyl-β-cyclodextrin; Saline: physiological saline)
Before and after the administration, 0.15 mL of blood was taken from the orbit of the animals under isoflurane anesthesia and placed in an EDTAK2 centrifuge tube. The blood was centrifuged at 5000 rpm and 4° C. for 10 min to collect plasma. The blood collection time points for the intravenous administration group and intragastric administration group were 0 min, 5 min, 15 min, 30 min, 1 h, 2 h, 4 h, 7 h and 24 h. Before analysis and detection, all samples were stored at −60° C. The samples were analyzed quantitatively by LC-MS/MS.

[3] = read-out: IC50 for inhibitory effect on hERG potassium channel current

Structure (SMILES) | Remaining IRAK4 protein IRAK4% (IRAK4 protein) | IC50 [1, 3] [µM] | further results
CCn1nc(C2CCC(=O)NC2=O)c2cccc(C#CCOC3CCN(C[C@H]4CC[C@H](n5cc(NC(=O)c6cnn7ccc(N8C[C@H]9C[C@@H]8CO9)nc67)c(C(F)F)n5)CC4)CC3)c21 (stereo partly shown) [Compound 6] | A (A ≤ 10%) | – | –
Cn1nc(C2CCC(=O)NC2=O)c2cccc(C#CCO[C@@H]3CCN(C[C@H]4CC[C@H](n5cc(NC(=O)c6cnn7ccc(N8C[C@H]9C[C@@H]8CO9)nc67)c(C(F)F)n5)CC4)C[C@@H]3F)c21 (stereo partly shown) [Compound 10] | A (A ≤ 10%) | > 30 | AUC(0-t) [2]: 17500 ± 5260 ng·h/mL
[2H]C([2H])([2H])n1nc(C2CCC(=O)NC2=O)c2cccc(C#CCOC3CCN(C[C@H]4CC[C@H](n5cc(NC(=O)c6cnn7ccc(N8C[C@H]9C[C@@H]8CO9)nc67)c(C(F)F)n5)CC4)CC3)c21 (relative stereo) [Compound 7, Trans-5-((1R,4R)-2-oxa-5-azabicyclo[2.2.1]heptan-5-yl)-N-(3-(difluoromethyl)-1-(4-((4-((3-(3-(2,6-dioxopiperidin-3-yl)-1-(methyl-d3)-1H-indazol-7-yl)prop-2-yn-1-yl)oxy)piperidin-1-yl)methyl)cyclohexyl)-1H-pyrazol-4-yl) pyrazolo[1,5-a]pyrimidine-3-carboxamide] | A (A ≤ 10%) | – | –
Cn1c(=O)n(C2CCC(=O)NC2=O)c2cccc(C#CCOC3CCN(C[C@H]4CC[C@H](n5cc(NC(=O)c6cnn7ccc(N8C[C@H]9C[C@@H]8CO9)nc67)c(C(F)F)n5)CC4)CC3)c21 (stereo partly shown) [Control compound 1, reference compound] | – | – | IC50 ([1]; IC50 for inhibitory effect on hERG potassium channel current): 0.642 µM; AUC(0-t) [2]: 2320 ± 146 ng·h/mL
O=C1CCC(c2nn(C3CC3)c3c(C#CCOC4CCN(C[C@H]5CC[C@H](n6cc(NC(=O)c7cnn8ccc(N9C[C@H]%10C[C@@H]9CO%10)nc78)c(C(F)F)n6)CC5)CC4)cccc23)C(=O)N1 (stereo partly shown) [Compound 16] | A (A ≤ 10%) | – | –
COC[C@H]1CN(c2ccn3ncc(C(=O)Nc4cn([C@H]5CC[C@H](CN6CC[C@H](OCC#Cc7cccc8c(C9CCC(=O)NC9=O)nn(C)c78)[C@H](F)C6)CC5)nc4C(F)F)c3n2)CCO1 (single isomer, unassigned) [Chiral isomer 2 of compound 23] | – | > 40 | DC50 (IRAK4 protein): < 20 nM
Cn1nc(C2CCC(=O)NC2=O)c2cccc(C#CCO[C@H]3CCN(C[C@H]4CC[C@H](n5cc(NC(=O)c6cnn7ccc(N8CCO[C@H](CO)C8)nc67)c(C(F)F)n5)CC4)C[C@H]3F)c21 (single isomer, unassigned) [Chiral isomer 1 of compound 25] | – | > 40 | DC50 (IRAK4 protein): < 20 nM
Cn1nc(C2CCC(=O)NC2=O)c2cccc(C#CCO[C@@H]3CCN(C[C@H]4CC[C@H](n5cc(NC(=O)c6cnn7ccc(N8CCO[C@@H](CO)C8)nc67)c(C(F)F)n5)CC4)C[C@@H]3F)c21 (single isomer, unassigned) [Trifluoroacetate salt of chiral isomer 2 of compound 19] | – | > 40 | AUC(0-t) [2]: 8300 ± 2850 ng·h/mL
Cn1nc(C2CCC(=O)NC2=O)c2cccc(C#CCO[C@@H]3CCN(C[C@H]4CC[C@H](n5cc(NC(=O)c6cnn7ccc(N8CCO[C@@H](CO)C8)nc67)c(C(F)F)n5)CC4)C[C@@H]3F)c21 (single isomer, unassigned) [Chiral isomer 2 of compound 19] | – | – | DC50 (IRAK4 protein): < 20 nM
Cn1nc(C2CCC(=O)NC2=O)c2cccc(C#CCO[C@H]3CCN(C[C@H]4CC[C@H](n5cc(NC(=O)c6cnn7ccc(N8CCO[C@H](CO)C8)nc67)c(C(F)F)n5)CC4)C[C@H]3F)c21 (single isomer, unassigned) [Chiral isomer 2 of compound 25] | – | > 40 | DC50 (IRAK4 protein): < 20 nM
Cn1nc(C2CCC(=O)NC2=O)c2cccc(C#CCO[C@H]3CCN(C[C@H]4CC[C@H](n5cc(NC(=O)c6cnn7ccc(N8C[C@H]9C[C@@H]8CO9)nc67)c(C(F)F)n5)CC4)C[C@@H]3F)c21 (stereo partly shown) [Compound 12] | B (10% < B ≤ 50%) | > 30 | –
Cn1nc(C2CCC(=O)NC2=O)c2cccc(C#CCO[C@H]3CCN(C[C@H]4CC[C@H](n5cc(NC(=O)c6cnn7ccc(N8CCO[C@@H](CO)C8)nc67)c(C(F)F)n5)CC4)C[C@H]3F)c21 (single isomer, unassigned) [Chiral isomer 1 of compound 24] | – | > 40 | DC50 (IRAK4 protein): < 20 nM

Now from value to compound, other results behind:

Remaining IRAK4 protein IRAK4% (IRAK4 protein) | Structure (SMILES) | IC50 [1, 3] [µM] | further results
B (10% < B ≤ 50%) | Cn1nc(C2CCC(=O)NC2=O)c2cccc(C#CCO[C@@H]3CCN(C[C@H]4CC[C@H](n5cc(NC(=O)c6cnn7ccc(N8C[C@H]9C[C@@H]8CO9)nc67)c(C(F)F)n5)CC4)C[C@H]3F)c21 (stereo partly shown) [Compound 13] | – | –
B (10% < B ≤ 50%) | Cn1nc(C2CCC(=O)NC2=O)c2cccc(C#CCOC3CCN(C[C@H]4CC[C@H](n5cc(NC(=O)c6cnn7cc(F)c(N8C[C@H]9C[C@@H]8CO9)nc67)c(C(F)F)n5)CC4)CC3)c21 (stereo partly shown) [Trifluoroacetate salt of compound 15] | – | –
B (10% < B ≤ 50%) | CN(C[C@H]1CC[C@H](n2cc(NC(=O)c3cnn4ccc(N5C[C@H]6C[C@@H]5CO6)nc34)c(C(F)F)n2)CC1)C1CCN(Cc2cccc3c(C4CCC(=O)NC4=O)nn(C)c23)CC1 (stereo partly shown) [Compound 1] | – | –
B (10% < B ≤ 50%) | CC(C)n1nc(C2CCC(=O)NC2=O)c2cccc(C#CCOC3CCN(C[C@H]4CC[C@H](n5cc(NC(=O)c6cnn7ccc(N8C[C@H]9C[C@@H]8CO9)nc67)c(C(F)F)n5)CC4)CC3)c21 (single isomer, unassigned) [Chiral isomer 1 of compound 8] | – | –
A (A ≤ 10%) | Cn1nc(C2CCC(=O)NC2=O)c2cccc(C#CCO[C@H]3CCN(C[C@H]4CC[C@H](n5cc(NC(=O)c6cnn7ccc(N8C[C@H]9C[C@@H]8CO9)nc67)c(C(F)F)n5)CC4)C[C@H]3F)c21 (stereo partly shown) [Compound 11] | > 30 | AUC(0-t) [2]: 8750 ± 4650 ng·h/mL
